# Legend:
# [1] = biological target: T1, GRK5 (Homo sapiens, UniProt P34947); experiment: Lance Kinase Activity Assay, GRK5; details: biochemical Lance kinase activity assay; class symbols A-F; read-out: GRK5 LANCE Assay (IC-50)
# T1 construct: purchased Thermo Scientific
# Method in brief: (§1)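 IC50s from sigmoidal dose-response over 0.0025-10 μM compound, with phosphorylated ULight substrate detected by Eu anti-phospho antibody FRET after EDTA quench.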
# [2] = biological target: T2, GRK2 (Homo sapiens, UniProt P25098); experiment: Lance Kinase Activity Assay, GRK2; details: biochemical Lance kinase activity assay; class symbols A-F; read-out: GRK2 LANCE Assay (IC-50)
# T2 construct: purchased Thermo Scientific
# T2 sequence (P25098 1-689): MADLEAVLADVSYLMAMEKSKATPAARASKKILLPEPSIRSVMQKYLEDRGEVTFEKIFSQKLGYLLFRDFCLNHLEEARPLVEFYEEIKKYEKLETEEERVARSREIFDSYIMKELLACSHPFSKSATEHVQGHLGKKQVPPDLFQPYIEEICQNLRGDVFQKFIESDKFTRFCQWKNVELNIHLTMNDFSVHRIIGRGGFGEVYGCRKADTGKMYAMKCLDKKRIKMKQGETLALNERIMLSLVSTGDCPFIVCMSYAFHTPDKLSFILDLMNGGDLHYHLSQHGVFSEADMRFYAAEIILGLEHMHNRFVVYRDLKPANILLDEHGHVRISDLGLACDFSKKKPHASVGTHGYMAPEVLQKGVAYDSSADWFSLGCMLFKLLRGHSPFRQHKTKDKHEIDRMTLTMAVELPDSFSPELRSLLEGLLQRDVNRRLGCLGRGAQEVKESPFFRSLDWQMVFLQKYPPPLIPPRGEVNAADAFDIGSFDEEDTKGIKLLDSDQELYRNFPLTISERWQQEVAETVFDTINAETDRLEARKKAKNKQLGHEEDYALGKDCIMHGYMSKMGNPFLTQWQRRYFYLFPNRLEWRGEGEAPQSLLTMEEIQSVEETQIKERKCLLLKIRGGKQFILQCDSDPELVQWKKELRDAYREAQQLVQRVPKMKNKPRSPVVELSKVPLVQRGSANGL
# Method in brief: as §1
# T1 sequence (P34947 whole entry): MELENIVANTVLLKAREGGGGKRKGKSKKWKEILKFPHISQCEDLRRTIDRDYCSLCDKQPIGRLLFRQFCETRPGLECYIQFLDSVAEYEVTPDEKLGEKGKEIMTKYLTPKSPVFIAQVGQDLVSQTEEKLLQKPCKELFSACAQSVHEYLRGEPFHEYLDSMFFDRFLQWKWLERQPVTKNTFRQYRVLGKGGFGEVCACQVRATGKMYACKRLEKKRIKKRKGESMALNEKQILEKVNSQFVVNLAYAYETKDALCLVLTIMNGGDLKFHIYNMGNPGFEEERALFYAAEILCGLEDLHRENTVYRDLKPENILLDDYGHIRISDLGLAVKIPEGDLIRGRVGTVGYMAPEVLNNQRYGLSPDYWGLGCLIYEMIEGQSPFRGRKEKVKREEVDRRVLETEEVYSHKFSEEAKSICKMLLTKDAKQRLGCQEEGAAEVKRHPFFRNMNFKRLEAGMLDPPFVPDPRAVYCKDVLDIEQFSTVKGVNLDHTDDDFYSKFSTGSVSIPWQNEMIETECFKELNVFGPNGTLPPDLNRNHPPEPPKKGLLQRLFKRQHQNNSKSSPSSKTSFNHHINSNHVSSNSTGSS
IC50 [1] [nM],IC50 [2] [nM],SMILES
≤ 50,1000 to 10000,"COc1ccc([C@@H](CO)NC(=O)/C=C/c2c[nH]c3ncc(C)cc23)cc1OC [Example 53, (S,E)-N-(1-(3,4-dimethoxyphenyl)-2-hydroxyethyl)-3-(5-methyl-1H-pyrrolo[2,3-b]pyridin-3-yl)acrylamide]"
100 to 500,1000 to 10000,"O=C(/C=C/c1c[nH]c2ncc(Cl)cc12)NCc1ccccc1 [Example 6, (E)-N-benzyl-3-(5-chloro-1H-pyrrolo[2,3-b]pyridin-3-yl)acrylamide]"
100 to 500,> 10000,"COc1ccc([C@@H](C)NC(=O)/C=C/c2c[nH]c3nccc(-c4ccc(C(N)=O)cc4)c23)cc1OC [Example 236, (R,E)-4-(3-(3-((1-(3,4-dimethoxyphenyl)ethyl)amino)-3-oxoprop-1-en-1-yl)-1H-pyrrolo[2,3-b]pyridin-4-yl)benzamide]"
1000 to 10000,> 10000,COc1ccc([C@@H](C)NC(=O)/C(C#N)=C/c2c[nH]c3ncc(-c4ccc(C(F)(F)F)cc4)cc23)cc1OC [Example 119]
≤ 50,> 10000,"COc1cccc(-c2cnc3[nH]cc(/C=C(\C#N)C(=O)N[C@H](C)c4ccc(OC)c(OC)c4)c3c2)c1 [Example 137, (R,E)-2-cyano-N-(1-(3,4-dimethoxyphenyl)ethyl)-3-(5-(3-methoxyphenyl)-1H-pyrrolo[2,3-b]pyridin-3-yl)acrylamide]"
1000 to 10000,1000 to 10000,"N#C/C(=C\c1c[nH]c2ncccc12)C(=O)NCc1ccc(F)cc1F [Example 65, (E)-2-cyano-N-(2,4-difluorobenzyl)-3-(1H-pyrrolo[2,3-b]pyridin-3-yl)acrylamide]"
100 to 500,100 to 500,"C[C@@H](NC(=O)/C(C#N)=C/c1c[nH]c2ncccc12)c1ccc(F)cc1F [Example 17, (R,E)-2-cyano-N-(1-(2,4-difluorophenyl)ethyl)-3-(1H-pyrrolo[2,3-b]pyridin-3-yl)acrylamide]"
100 to 500,1000 to 10000,C[C@@H](NC(=O)/C(C#N)=C/c1c[nH]c2ncc(-c3ccccc3)cc12)c1ccc(F)cc1 [Example 179]
500 to 1000,1000 to 10000,"N#C/C(=C\c1c[nH]c2ncccc12)C(=O)NCc1cccc(C(F)(F)F)c1 [Example 61, (E)-2-cyano-3-(1H-pyrrolo[2,3-b]pyridin-3-yl)-N-(3-(trifluoromethyl)benzyl)acrylamide]"
100 to 500,> 10000,"COc1ccc([C@@H](C)NC(=O)/C=C/c2c[nH]c3nccc(-c4cccc(CN(C)C)c4)c23)cc1OC [Example 224, (R,E)-N-(1-(3,4-dimethoxyphenyl)ethyl)-3-(4-(3-((dimethylamino)methyl)phenyl)-1H-pyrrolo[2,3-b]pyridin-3-yl)acrylamide]"
100 to 500,> 10000,"COc1ccc([C@@H](C)NC(=O)/C=C/c2c[nH]c3nccc(-c4cnn(C)c4)c23)cc1OC [Example 238, (R,E)-N-(1-(3,4-dimethoxyphenyl)ethyl)-3-(4-(1-methyl-1H-pyrazol-4-yl)-1H-pyrrolo[2,3-b]pyridin-3-yl)acrylamide]"
≤ 50,1000 to 10000,COc1ccc([C@@H](C)NC(=O)/C=C/c2c[nH]c3ncc(-c4cccc(C(N)=O)c4)cc23)cc1OC [Example 189]
≤ 50,500 to 1000,"COc1ccc([C@@H](C)NC(=O)/C(C#N)=C/c2c[nH]c3ncc(-c4ccc(C5CCN(C)CC5)cc4)cc23)cc1OC [Example 132, (R,E)-2-cyano-N-(1-(3,4-dimethoxyphenyl)ethyl)-3-(5-(4-(1-methylpiperidin-4-yl)phenyl)-1H-pyrrolo[2,3-b]pyridin-3-yl)acrylamide]"
100 to 500,100 to 500,"N#C/C(=C\c1c[nH]c2ncccc12)C(=O)NCc1cccc(Cl)c1 [Example 60, (E)-N-(3-chlorobenzyl)-2-cyano-3-(1H-pyrrolo[2,3-b]pyridin-3-yl)acrylamide]"
≤ 50,1000 to 10000,"COc1ccc([C@@H](C)NC(=O)/C(C#N)=C/c2c[nH]c3ncc(-c4cccc(CN5CCN(C)CC5)c4)cc23)cc1OC [Example 118, (R,E)-2-cyano-N-(1-(3,4-dimethoxyphenyl)ethyl)-3-(5-(3-((4-methylpiperazin-1-yl)methyl)phenyl)-1H-pyrrolo[2,3-b]pyridin-3-yl)acrylamide]"
≤ 50,100 to 500,"C[C@@H](NC(=O)/C(C#N)=C/c1c[nH]c2ncc(-c3cnn(C)c3)cc12)c1cccc(Cl)c1 [Example 96, (R,E)-N-(1-(3-chlorophenyl)ethyl)-2-cyano-3-(5-(1-methyl-1H-pyrazol-4-yl)-1H-pyrrolo[2,3-b]pyridin-3-yl)acrylamide]"

IC50 [1] [nM],IC50 [2] [nM],SMILES
100 to 500,> 10000,COc1ccc([C@@H](C)NC(=O)/C(C#N)=C/c2c[nH]c3ncc(-c4ccccc4CN(C)C)cc23)cc1OC [Example 136]
100 to 500,> 10000,"COc1ccc([C@@H](C)NC(=O)/C(C#N)=C/c2c[nH]c3ncc(C#N)cc23)cc1OC [Example 86, (R,E)-2-cyano-3-(5-cyano-1H-pyrrolo[2,3-b]pyridin-3-yl)-N-(1-(3,4-dimethoxyphenyl)ethyl)acrylamide]"
1000 to 10000,1000 to 10000,"CC(NC(=O)/C=C/c1c[nH]c2ncccc12)c1ccc(F)cc1 (centres unmarked) [Example 10, (E)-N-(1-(4-fluorophenyl)ethyl)-3-(1H-pyrrolo[2,3-b]pyridin-3-yl)acrylamide]"
1000 to 10000,> 10000,"N#C/C(=C\c1c[nH]c2ncccc12)C(=O)NC(c1cccc(Br)c1)C(F)(F)F (centres unmarked) [Example 47, (E)-N-(1-(3-bromophenyl)-2,2,2-trifluoroethyl)-2-cyano-3-(1H-pyrrolo[2,3-b]pyridin-3-yl)acrylamide]"
≤ 50,1000 to 10000,COc1ccc([C@@H](C)NC(=O)/C=C/c2c[nH]c3ncc(-c4cccc(CCN(C)C)c4)cc23)cc1OC [Example 192]
100 to 500,> 10000,"COc1ccc([C@@H](C)NC(=O)/C=C/c2c[nH]c3nccc(-c4cnn5ccccc45)c23)cc1OC [Example 242, (R,E)-N-(1-(3,4-dimethoxyphenyl)ethyl)-3-(4-(pyrazolo[1,5-a]pyridin-3-yl)-1H-pyrrolo[2,3-b]pyridin-3-yl)acrylamide]"
≤ 50,> 10000,COc1ccc(-c2cnc3[nH]cc(/C=C(\C#N)C(=O)N[C@H](C)c4ccc(OC)c(OC)c4)c3c2)cc1OC [Example 145]
1000 to 10000,1000 to 10000,"CC(NC(=O)/C(C#N)=C/c1c[nH]c2ncccc12)c1ccccc1-n1cccn1 (centres unmarked) [Example 38, (E)-N-(1-(2-(1H-pyrazol-1-yl)phenyl)ethyl)-2-cyano-3-(1H-pyrrolo[2,3-b]pyridin-3-yl)acrylamide]"
≤ 50,1000 to 10000,COc1ccc([C@@H](C)NC(=O)/C=C/c2c[nH]c3ncc(-c4ccc(CN5CCOCC5)cc4)cc23)cc1OC [Example 194]
100 to 500,500 to 1000,"C[C@@H](NC(=O)/C(C#N)=C/c1c[nH]c2nccc(Cl)c12)c1ccc(F)cc1 [Example 78, (R,E)-3-(4-chloro-1H-pyrrolo[2,3-b]pyridin-3-yl)-2-cyano-N-(1-(4-fluorophenyl)ethyl)acrylamide]"
≤ 50,> 10000,"Cc1nn(C)c2cc([C@@H](C)NC(=O)/C(C#N)=C/c3c[nH]c4ncc(-c5cnn(C)c5)cc34)ccc12 [Example 261, (R,E)-2-cyano-N-(1-(1,3-dimethyl-1H-indazol-6-yl)ethyl)-3-(5-(1-methyl-1H-pyrazol-4-yl)-1H-pyrrolo[2,3-b]pyridin-3-yl)acrylamide]"
50 to 100,50 to 100,"C[C@@H](NC(=O)/C(C#N)=C/c1c[nH]c2ncccc12)c1ccc(F)c(F)c1 [Example 16, (R,E)-2-cyano-N-(1-(3,4-difluorophenyl)ethyl)-3-(1H-pyrrolo[2,3-b]pyridin-3-yl)acrylamide]"
≤ 50,1000 to 10000,"COc1ccc([C@@H](C)NC(=O)/C=C/c2c[nH]c3ncc(-c4cccc(S(N)(=O)=O)c4)cc23)cc1OC [Example 208, (R,E)-N-(1-(3,4-dimethoxyphenyl)ethyl)-3-(5-(3-sulfamoylphenyl)-1H-pyrrolo[2,3-b]pyridin-3-yl)acrylamide]"
≤ 50,1000 to 10000,"COc1ccc([C@@H](C)NC(=O)/C(C#N)=C/c2c[nH]c3ncc(Nc4ccccc4)cc23)cc1OC [Example 88, (R,E)-2-cyano-N-(1-(3,4-dimethoxyphenyl)ethyl)-3-(5-(phenylamino)-1H-pyrrolo[2,3-b]pyridin-3-yl)acrylamide]"
100 to 500,100 to 500,"C[C@@H](NC(=O)/C(C#N)=C/c1c[nH]c2ncccc12)c1cccc(F)c1 [Example 1, (R,E)-2-cyano-N-(1-(3-fluorophenyl)ethyl)-3-(1H-pyrrolo[2,3-b]pyridin-3-yl)acrylamide]"
